Measured values taken from US20200246323A1, “Antibody Drug Conjugates with Cell Permeable BCL-XL Inhibitors” (AbbVie Inc., priority 2014, published 2020).
pKi: −log10 of the molar value. Like-named read-outs stand apart in the source and are kept apart here. Marks after values point to notes of the source that are not given here. Each block holds one molecule with its values, some of them ahead of it.

Legend:
NCI-H1650 xenografts = assay: Inhibition of H1650 xenograft tumor growth; type: in vivo, mouse; settings: Table 9
circulating platelets [1] = assay: Number of circulating platelets in mice after a single dose; settings: for Lowest thrombocyte count / Time to lowest count: SCID/bg mice
[2] = tested on: Molt-4 human acute lymphoblastic leukemia cells; assay: Molt-4 cell viability assay (CellTiter-Glo, 48 hours); type: cell-based; settings: 10% human serum, read-out: Molt-4 Viability EC50 (nM, 10% HS)
Description: The ability of exemplary Bcl-xL inhibitors can be determined in cell-based killing assays using a variety of cell lines and mouse tumor models. For example, their activity on cell viability can be assessed on a panel of cultured tumorigenic and non-tumorigenic cell lines, as well as primary mouse or human cell populations. Bcl-xL inhibitory activity of exemplary Bcl-xL inhibitors was confirmed in a cell viability assay with Molt-4 cells.
In one exemplary set of conditions, Molt-4 (ATCC, Manassas, Va.) human acute lymphoblastic leukemia cells were plated 12,500 cells per well in 384-well tissue culture plates (Corning, Corning, N.Y.) in a total volume of 25 μL tissue culture medium supplemented with 10% human serum (Sigma-Aldrich, St. Louis, Mo.) and treated with a 3-fold serial dilution of the compounds of interest from 10 μM to 0.0005 μM. Each concentration was tested in duplicate at least 3 separate times. The number of viable cells following 48 hours of compound treatment was determined using the CellTiter-Glo Luminescent Cell Viability Assay according to the manufacturer's recommendations (Promega Corp., Madison, Wis.). Compounds were tested in the presence of 10% HS.

GST-Bcl-xL = GST-Bcl-xL (Homo sapiens, UniProt Q07817); assay: TR-FRET Bcl-xL binding assay (competition with probe F-Bak); settings: for Ki: in the presence of 1% human serum, read-out: Bcl-xL Binding Ki (nM, 1% HS); for pKi: without HS, read-out: Bcl-xL Binding Ki
Chain of GST-Bcl-xL (Q07817 whole entry): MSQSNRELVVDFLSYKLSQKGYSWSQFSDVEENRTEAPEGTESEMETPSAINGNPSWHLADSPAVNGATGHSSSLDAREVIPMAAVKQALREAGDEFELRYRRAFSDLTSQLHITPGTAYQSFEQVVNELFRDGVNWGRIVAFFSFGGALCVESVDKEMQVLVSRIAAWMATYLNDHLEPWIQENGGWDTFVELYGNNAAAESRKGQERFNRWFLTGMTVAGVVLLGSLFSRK
Procedure: Tb-anti-GST antibody was purchased from Invitrogen (Catalog No. PV4216).
For the assay, test compounds were serially diluted in DMSO starting at 50 μM (2× starting concentration; 10% DMSO) and 10 μL transferred into a 384-well plate. 10 μL of a protein/probe/antibody mix was then added to each well at final concentrations listed below:
The samples were then mixed on a shaker for 1 minute and incubated for an additional 2 hours at room temperature. For each assay plate, a probe/antibody and protein/antibody/probe mixture were included as a negative and a positive control, respectively. Fluorescence was measured on the Envision (Perkin Elmer) using a 340/35 nm excitation filter and 520/525 (F-Bak) and 495/510 nm (Tb-labeled anti-his antibody) emission filters. Dissociation constants (Ki) were determined using Wang's equation (Wang, 1995, FEBS Lett. 360:111-114). The TR-FRET assay can be performed in the presence of varying concentrations of human serum (HS) or fetal bovine serum (FBS). Compounds were tested both without HS and in the presence of 1% HS.

circulating platelets [3] = settings: SCID/bg, mouse, in vivo, po, 100 mg/kg
NCI-H1963.FP5 xenografts = assay: Inhibition of H1963.FP5 xenograft tumor growth; type: in vivo, mouse; settings: Table 15; 50 mg/kg/day PO QDx21
NCI-H146 xenografts = assay: Inhibition of H146 xenograft tumor growth; type: in vivo, mouse; settings: Table 14; 50 mg/kg/day PO QDx21
EBC-1 xenografts = assay: Inhibition of EBC-1 xenograft tumor growth; type: in vivo, mouse; settings: Table 13, 7.5 mg/kg/day IV QDx1
[4] = 25 mg/kg/day PO QDx14, 25 mg/kg/day
[5] = single dose 0.61 mg/kg, intravenous

SMILES: Cc1c(-c2ccc(N3CCc4cccc(C(=O)Nc5nc6ccccc6s5)c4C3)nc2C(=O)O)cnn1CC12CC3CC(CC(C3)C1)C2 [Example A-1331852]
Response Frequency CR (%) (NCI-H1650 xenografts; 25 mg/kg/day PO QDx14): 0% | Response Frequency OR (%) (NCI-H1650 xenografts; 25 mg/kg/day PO QDx14): 0% | Response Frequency PR (%) (NCI-H1650 xenografts; 25 mg/kg/day PO QDx14): 0% | Growth Inhibition TGD (%) (NCI-H1650 xenografts; [4]): 78% | Growth Inhibition TGImax (%) (NCI-H1650 xenografts; [4]): 57% | Lowest thrombocyte count (circulating platelets [1]; single dose 25 mg/kg, oral): 9 1/10^3 of the platelet#/mm^3 | Time to lowest count (circulating platelets [1]; single dose 25 mg/kg, oral): 6 h

SMILES: Cc1c(-c2ccc(N3CCc4ccc(F)c(C(=O)Nc5nc6ccccc6s5)c4C3)nc2C(=O)O)cnn1CC12CC3(C)CC(C)(C1)CC(OCCN)(C3)C2 [Example 1.8, 3-(1-{[3-(2-aminoethoxy)-5,7-dimethyltricyclo[3.3.1.1^3′ ]dec-1-yl]methyl}-5-methyl-1H-pyrazol-4-yl)-6-[8-(1,3-benzothiazol-2-ylcarbamoyl)-7-fluoro-3,4-dihydroisoquinolin-2(1H)-yl]pyridine-2-carboxylic acid]
Ki (GST-Bcl-xL): 17 nM | pKi (GST-Bcl-xL): 10.00

SMILES: CC1(C)CCC(c2ccc(Cl)cc2)=C(CN2CCN(c3ccc(C(=O)NS(=O)(=O)c4ccc(N[C@H](CCN5CCOCC5)CSc5ccccc5)c(S(=O)(=O)C(F)(F)F)c4)cc3)CC2)C1 [ABT-263, Navitoclax]
Time to lowest count (circulating platelets [3]): 6 h | Lowest thrombocyte count (circulating platelets [3]; 6 h): 10 1/10^3 of the platelet#/mm^3

SMILES: CC1(C)CCC(CN2CCN(c3ccc(C(=O)NS(=O)(=O)c4ccc(NCC5CCOCC5)c([N+](=O)[O-])c4)c(Oc4cnc5[nH]ccc5c4)c3)CC2)=C(c2ccc(Cl)cc2)C1 [ABT-199]
Growth Inhibition TGD (%) (NCI-H1963.FP5 xenografts): 22* % | Growth Inhibition TGImax (%) (NCI-H1963.FP5 xenografts): 50* % | Response Frequency CR (%) (NCI-H1963.FP5 xenografts): 0% | Response Frequency OR (%) (NCI-H1963.FP5 xenografts): 0% | Response Frequency PR (%) (NCI-H1963.FP5 xenografts): 0% | Growth Inhibition TGD (%) (NCI-H146 xenografts): 48* % | Growth Inhibition TGImax (%) (NCI-H146 xenografts): 75* % | Response Frequency CR (%) (NCI-H146 xenografts): 0% | Response Frequency OR (%) (NCI-H146 xenografts): 0% | Response Frequency PR (%) (NCI-H146 xenografts): 0%

SMILES: CC(=O)O[C@@]12CO[C@@H]1C[C@H](O)[C@@]1(C)C(=O)[C@H](O)C3=C(C)[C@@H](OC(=O)[C@H](O)[C@@H](NC(=O)OC(C)(C)C)c4ccccc4)C[C@@](O)([C@@H](OC(=O)c4ccccc4)[C@H]21)C3(C)C [DTX, docetaxel]
Response Frequency CR (%) (EBC-1 xenografts): 0% | Response Frequency OR (%) (EBC-1 xenografts): 0% | Response Frequency PR (%) (EBC-1 xenografts): 0% | Growth Inhibition TGD (%) (EBC-1 xenografts; 7.5 mg/kg/day): 44% | Growth Inhibition TGImax (%) (EBC-1 xenografts; 7.5 mg/kg/day): 76% | Growth Inhibition TGD (%) (NCI-H1650 xenografts; 7.5 mg/kg/day IV QDx1): 94* % | Growth Inhibition TGImax (%) (NCI-H1650 xenografts; 7.5 mg/kg/day IV QDx1): 73* % | Response Frequency CR (%) (NCI-H1650 xenografts; 7.5 mg/kg/day IV QDx1): 0% | Response Frequency OR (%) (NCI-H1650 xenografts; 7.5 mg/kg/day IV QDx1): 0% | Response Frequency PR (%) (NCI-H1650 xenografts; 7.5 mg/kg/day IV QDx1): 0%

Continued, values first:

EC50 [2]: 12.1 nM | Ki (GST-Bcl-xL): 0.24 nM | pKi (GST-Bcl-xL): 11.00
SMILES: Cc1c(-c2ccc(N3CCc4cccc(C(=O)Nc5nc6ccccc6s5)c4C3)nc2C(=O)O)cnn1CC12CC3(C)CC(C)(C1)CC(OCCOCCN)(C3)C2 [Example 1.4, 3-[1-({3-[2-(2-aminoethoxy)ethoxy]-5,7-dimethyltricyclo[3.3.1.1^3,7]dec-1-yl}methyl)-5-methyl-1H-pyrazol-4-yl]-6-[8-(1,3-benzothiazol-2-ylcarbamoyl)-3,4-dihydroisoquinolin-2(1H)yl]pyridine-2-carboxylic acid]

EC50 [2]: 6.6 nM | Ki (GST-Bcl-xL): 0.097 nM | pKi (GST-Bcl-xL): > 12.00
SMILES: Cc1c(-c2ccc(N3CCc4cccc(C(=O)Nc5nc6ccccc6s5)c4C3)nc2C(=O)O)cnn1CC12CC3(C)CC(C)(C1)CC(OCCN)(C3)C2 [Example 1.3, 3-(1-{[3-(2-aminoethoxy)-5,7-dimethyltricyclo[3.3.1.1^3,7]dec-1-yl]methyl}-5-methyl-1H-pyrazol-4-yl)-6-[8-(1,3-benzothiazol-2-ylcarbamoyl)-3,4-dihydroisoquinolin-2(1H)yl]pyridine-2-carboxylic acid]

Decrease of the platelet number from normal count (circulating platelets [1]; dose of 0.61 mg/kg): 100 fold | Lowest thrombocyte count (circulating platelets [1]; [5]): 6 1/10^3 of the platelet#/mm^3 | Time to lowest count (circulating platelets [1]; [5]): 6 h | EC50 [2]: 7.8 nM | Ki (GST-Bcl-xL): 0.39 nM | pKi (GST-Bcl-xL): 11.54
SMILES: CNCCOC12CC3(C)CC(C)(CC(Cn4ncc(-c5ccc(N6CCc7cccc(C(=O)Nc8nc9ccccc9s8)c7C6)nc5C(=O)O)c4C)(C3)C1)C2 [Example 1.1]

EC50 [2]: 1.85 nM | Ki (GST-Bcl-xL): 0.078 nM | pKi (GST-Bcl-xL): > 12.00
SMILES: COCCNCCOC12CC3(C)CC(C)(CC(Cn4ncc(-c5ccc(N6CCc7cccc(C(=O)Nc8nc9ccccc9s8)c7C6)nc5C(=O)O)c4C)(C3)C1)C2 [Example 1.5, 6-[8-(1,3-benzothiazol-2-ylcarbamoyl)-3,4-dihydroisoquinolin-2(1H)-yl]-3-(1-[(3-{2-[(2-methoxyethyl)amino]ethoxy}-5,7-dimethyltricyclo[3.3.1.1^3,7]dec-1-yl)methyl]-5-methyl-1H-pyrazol-4-yl)pyridine-2-carboxylic acid]

EC50 [2]: 5.4 nM | Ki (GST-Bcl-xL): 0.51 nM | pKi (GST-Bcl-xL): 10.40
SMILES: CNCCOCCOCCOC12CC3(C)CC(C)(CC(Cn4ncc(-c5ccc(N6CCc7cccc(C(=O)Nc8nc9ccccc9s8)c7C6)nc5C(=O)O)c4C)(C3)C1)C2 [Example 1.2, 6-[8-(1,3-benzothiazol-2-ylcarbamoyl)-3,4-dihydroisoquinolin-2(1H)-yl]-3-(1-({[(1r,3R,5S,7s)-3,5-dimethyl-7-(2-(2-[2-(methylamino)ethoxy]ethoxy}ethoxy)tricyclo[3.3.1.1^3,7]dec-1-yl]methyl)-5-methyl-1H-pyrazol-4-yl)pyridine-2-carboxylic acid]

EC50 [2]: 4 nM | Ki (GST-Bcl-xL): 0.094 nM | pKi (GST-Bcl-xL): 10.96
SMILES: Cc1c(-c2ccc(N3CCc4cc(F)cc(C(=O)Nc5nc6ccccc6s5)c4C3)nc2C(=O)O)cnn1CC12CC3(C)CC(C)(C1)CC(OCCN)(C3)C2 [Example 1.7, 3-(1-{[3-(2-aminoethoxy)-5,7-dimethyltricyclo[3.3.1.1^3,7]dec-1-yl]methyl}-5-methyl-1H-pyrazol-4-yl)-6-[8-(1,3-benzothiazol-2-ylcarbamoyl)-6-fluoro-3,4-dihydroisoquinolin-2(1H)-yl]pyridine-2-carboxylic acid]

EC50 [2]: 47 nM | Ki (GST-Bcl-xL): 0.62 nM | pKi (GST-Bcl-xL): 10.72
SMILES: Cc1c(-c2ccc(N3CCc4c(F)ccc(C(=O)Nc5nc6ccccc6s5)c4C3)nc2C(=O)O)cnn1CC12CC3(C)CC(C)(C1)CC(OCCN)(C3)C2 [Example 1.6, 3-(1-{[3-(2-aminoethoxy)-5,7-dimethyltricyclo[3.3.1.1^3,7]dec-1-yl]methyl}-5-methyl-1H-pyrazol-4-yl)-6-[8-(1,3-benzothiazol-2-ylcarbamoyl)-5-fluoro-3,4-dihydroisoquinolin-2(1H)-yl]pyridine-2-carboxylic acid]
